Here are results for eleven compounds from PubChem BioAssay (NCI).

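Method: 48-hour compound exposure of cells in 96-well plates, five concentrations, linear interpolation of endpoints. GI50 is the concentration that inhibits growth by half. Definition used: TGI = concentration required for complete inhibition of growth.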 Some results are limits rather than exact numbers.

Among the test systems are OVCAR-4 ovarian; MDA-MB-231 breast; HL-60(TB) leukemia; M14 melanoma; SR leukemia; SK-MEL-2 melanoma; EKVX NSCLC; HCC-2998 colon.
Common to all, as to test: NCI tumour cell line growth inhibition, 48 h

For the compound `O=C(Nc1cc(Cl)cc(Cl)c1)c1ccc(NC2=C(Cl)C(=O)N(Cc3ccccc3)C2=O)cc1`, the GI50 is 18.6 µM in the experiment with OVCAR-4 ovarian; 5.74 µM in the experiment with MDA-MB-231 breast; 1.55 µM in the experiment with HL-60(TB) leukemia; 9.37 µM with M14 melanoma; 1.51 µM in the experiment with SR leukemia; 12.7 µM in the experiment with SK-MEL-2 melanoma. Moreover, the GI50 in the experiment with EKVX NSCLC is 13.9 µM. The TGI is over 100 µM in the experiment with OVCAR-4 ovarian; 22.4 µM with MDA-MB-231 breast; 4.43 µM in the experiment with HL-60(TB) leukemia; 24.2 µM in the experiment with M14 melanoma; 4.81 µM in the experiment with SR leukemia; 33.9 µM with SK-MEL-2 melanoma. In addition, in the experiment with EKVX NSCLC, the TGI was 28.7 µM.

As for `O=C1C=CC(=O)N1CCCCCCCCCCN1C(=O)C=CC1=O`, the GI50 in the experiment with OVCAR-4 ovarian was 8.38 µM; with MDA-MB-231 breast it was 15.7 µM; with HL-60(TB) leukemia it was 8.72 µM; in the experiment with M14 melanoma, 6.9 µM; with SR leukemia, 6.88 µM; with EKVX NSCLC, 19.4 µM. Also, in the experiment with HCC-2998 colon, the GI50 is 26 µM. The TGI is 24.8 µM with OVCAR-4 ovarian; 29.5 µM with MDA-MB-231 breast; 31.4 µM with HL-60(TB) leukemia; 20 µM in the experiment on M14 melanoma; 41.2 µM in the experiment with SR leukemia; 39.2 µM in the experiment with EKVX NSCLC. For the same compound, in the experiment on HCC-2998 colon, the TGI was found to be 71.2 µM.

For the compound `O=C(CN/C=C\C(=O)c1cc(Cl)ccc1Cl)c1ccccc1`, the GI50 is 49.8 µM with OVCAR-4 ovarian; 21.6 µM in the experiment with MDA-MB-231 breast; 73.4 µM with HL-60(TB) leukemia; 24 µM with M14 melanoma; over 100 µM in the experiment on SR leukemia; 31.1 µM in the experiment on EKVX NSCLC. In addition, the GI50 in the experiment with HCC-2998 colon is 19.3 µM. The TGI is over 100 µM with OVCAR-4 ovarian; 47.5 µM in the experiment on MDA-MB-231 breast; over 100 µM with HL-60(TB) leukemia; 59.6 µM in the experiment with M14 melanoma; over 100 µM in the experiment with SR leukemia; 99.2 µM in the experiment with EKVX NSCLC. This compound also registered a TGI in the experiment on HCC-2998 colon of 47.2 µM.

Take `Cc1ccc(C2CC(c3cccc(Nc4ccncc4)c3)=NN2c2ccc(Cl)cc2)cc1` (stereo not given): the GI50 is 1.69 µM in the experiment on OVCAR-4 ovarian; 1.41 µM in the experiment on MDA-MB-231 breast; 1.92 µM with HL-60(TB) leukemia; 1.73 µM in the experiment on M14 melanoma; 1.52 µM in the experiment with SR leukemia; 1.48 µM with EKVX NSCLC. Further, in the experiment on HCC-2998 colon, the GI50 is 1.69 µM. The TGI is 3.35 µM with OVCAR-4 ovarian; 2.78 µM in the experiment with MDA-MB-231 breast; 4 µM with HL-60(TB) leukemia; 3.39 µM in the experiment with M14 melanoma; 3.52 µM with SR leukemia; 2.88 µM in the experiment on EKVX NSCLC. Further, the TGI in the experiment on HCC-2998 colon turned out to be 3.14 µM.

For the compound `COc1ccc(/C=C2\CCCC3=C2N=C2SC=NN2C3c2ccc(OC)c(OC)c2)cc1OC` (stereo not given), the GI50 with MDA-MB-231 breast is 26 µM; in the experiment on HL-60(TB) leukemia, 22.2 µM; in the experiment on M14 melanoma, 11.9 µM; with SR leukemia, 5.65 µM; with SK-MEL-2 melanoma, 25.8 µM; with HCC-2998 colon, over 100 µM. Also, the TGI is over 100 µM with MDA-MB-231 breast; 78 µM in the experiment on HL-60(TB) leukemia; over 100 µM with M14 melanoma; 66.1 µM with SR leukemia; over 100 µM in the experiment with SK-MEL-2 melanoma; over 100 µM in the experiment with HCC-2998 colon.

Consider `Clc1cccc(Cc2cn3cc(-c4ccccc4)nc3s2)c1`, for which the GI50 was 4.42 µM in the experiment on OVCAR-4 ovarian; 1.91 µM in the experiment with MDA-MB-231 breast; 9.13 µM in the experiment with HL-60(TB) leukemia; 0.84 µM in the experiment with M14 melanoma; 36.5 µM with SR leukemia; 3.28 µM in the experiment on SK-MEL-2 melanoma. Further, the GI50 with HCC-2998 colon was 2.39 µM. In addition, the TGI with OVCAR-4 ovarian was over 100 µM; in the experiment on MDA-MB-231 breast, 21.3 µM; with HL-60(TB) leukemia it was over 100 µM; in the experiment with M14 melanoma it was over 100 µM; with SR leukemia, over 100 µM; in the experiment with SK-MEL-2 melanoma, 34.4 µM. The compound further returned a TGI with HCC-2998 colon of over 100 µM.

In the case of `Cn1cc(C2=C(c3cccc(NCC(O)CO)c3)C(=O)NC2=O)c2cc(Cl)ccc21` (stereo not given), the GI50 in the experiment with OVCAR-4 ovarian was 1.87 µM; in the experiment on MDA-MB-231 breast, 5.94 µM; in the experiment on HL-60(TB) leukemia, 6.9 µM; with M14 melanoma, 6.59 µM; in the experiment with SR leukemia, 3.03 µM; with SK-MEL-2 melanoma, 3.58 µM. Also, in the experiment on HCC-2998 colon, the GI50 is 6.56 µM. Besides, the TGI with OVCAR-4 ovarian is 11.6 µM; in the experiment on MDA-MB-231 breast, 15.5 µM; in the experiment on HL-60(TB) leukemia, 17.1 µM; with M14 melanoma, 18.4 µM; in the experiment with SR leukemia it was over 25 µM; in the experiment with SK-MEL-2 melanoma it was 10 µM. Moreover, the TGI with HCC-2998 colon stood at 17.9 µM.

As to `O=C(Nc1cccc(-n2cc(-c3ccncc3)c(-c3ccc(O)c(Cl)c3)n2)c1)Nc1ccc(Cl)c(C(F)(F)F)c1`, the GI50 with OVCAR-4 ovarian was 2.77 µM; with MDA-MB-231 breast, 1.84 µM; with HL-60(TB) leukemia, 2.55 µM; in the experiment on M14 melanoma, 1.79 µM; with SR leukemia, 1.6 µM; with SK-MEL-2 melanoma it was 2.14 µM. Moreover, the GI50 with HCC-2998 colon is 2.81 µM. Moreover, the TGI was determined as 9.97 µM with OVCAR-4 ovarian; 7.63 µM in the experiment on MDA-MB-231 breast; 6.38 µM with HL-60(TB) leukemia; 3.77 µM in the experiment with M14 melanoma; 5.6 µM with SR leukemia; 4.28 µM in the experiment with SK-MEL-2 melanoma. Also, the TGI in the experiment with HCC-2998 colon turned out to be 6.98 µM.

As for `COc1ccc(-c2oncc2-c2cc(OC)c3c(c2)OCO3)cc1`, the GI50 in the experiment on OVCAR-4 ovarian was 10 µM; in the experiment on MDA-MB-231 breast, 2.8 µM; with HL-60(TB) leukemia it was 2.53 µM; with M14 melanoma it was 2.33 µM; in the experiment on SR leukemia it was 1.13 µM; in the experiment on SK-MEL-2 melanoma, 2.88 µM. The GI50 in the experiment with HCC-2998 colon was 6.36 µM. In addition, the TGI was over 100 µM with OVCAR-4 ovarian; 54 µM with MDA-MB-231 breast; over 26.5 µM in the experiment with HL-60(TB) leukemia; over 69.6 µM in the experiment on M14 melanoma; 39.6 µM in the experiment on SR leukemia; over 29.5 µM in the experiment with SK-MEL-2 melanoma. In addition, the TGI with HCC-2998 colon was over 100 µM.

Take `CNC(=S)N/N=C(/C)CCC/C(C)=N/NC(=S)NC`: the TGI with OVCAR-4 ovarian was 29.2 µM; with MDA-MB-231 breast, over 100 µM; with HL-60(TB) leukemia it was over 100 µM; in the experiment with M14 melanoma, over 100 µM; in the experiment on SR leukemia it was over 100 µM; with SK-MEL-2 melanoma, over 100 µM. In the experiment with EKVX NSCLC, this compound registered a TGI of over 100 µM.

Consider `CC(=O)O[C@@H]1CC(=O)O[C@@H]2C[C@@H](CC/C(Cl)=C/C/C=C\1C)O[C@@H]2CO`, for which the GI50 in the experiment with MDA-MB-231 breast was over 25 µM; with HL-60(TB) leukemia it was over 25 µM; in the experiment with M14 melanoma, over 25 µM; with SR leukemia it was over 25 µM; in the experiment on SK-MEL-2 melanoma it was over 25 µM; in the experiment on EKVX NSCLC, over 15 µM. For the same compound, in the experiment on HCC-2998 colon, the GI50 was over 25 µM. Also, the TGI in the experiment on MDA-MB-231 breast, in the experiment on HL-60(TB) leukemia, with M14 melanoma, in the experiment on SR leukemia, with SK-MEL-2 melanoma and with EKVX NSCLC was over 25 µM throughout. In addition, the TGI in the experiment with HCC-2998 colon is over 25 µM.
